Key:
Type in all cases: in vivo
adult Musca domestica = assay: Musca domestica test (MUSCDO); settings: Example C, treated sponge
Method: Musca domestica Test (MUSCDO)
(§1) • Solvent: Dimethyl sulphoxide
To produce a suitable preparation of active compound, 1 part by weight of active compound is mixed with the stated amount of water, and the concentrate is diluted with water to the desired concentration.
Containers containing a sponge treated with the preparation of active compound of the desired concentration are populated with adult Musca domestica.
After the desired period of time, the kill in % is determined. 100% means that all flies have been killed; 0% means that none of the flies have been killed.
(§2) In this test, for example, the following compounds of the preparation examples show good activity: see table

Lucilia cuprina larvae = assay: Lucilia cuprina test (LUCICU); settings: treated horsemeat
Method: Lucilia cuprina Test (LUCICU)
Description for Examples A and B
as §1
To produce a suitable preparation of active compound, 1 part by weight of active compound is mixed with the stated amount of water and the concentrate is diluted with water to the desired concentration.
Containers containing horsemeat treated with the active compound preparation of the desired concentration are populated with Lucilia cuprina larvae.
After the desired period of time, the kill in % is determined. 100% means that all larvae have been killed; 0% means that none of the larvae have been killed.
as §2

[1] = test system: larvae of the mustard beetle (Phaedon cochleariae); assay: Phaedon test (PHAECO spray treatment); settings: 4 ppm active compound, sprayed Chinese cabbage discs
Method: Phaedon Test (PHAECO Spray Treatment)
• Solvents: 78 parts by weight of acetone • 1.5 parts by weight of dimethylformamide • Emulsifier: 0.5 part by weight of alkylaryl polyglyycol ether
After the desired period of time, the effect in % is determined. 100% means that all beetle larvae have been killed; 0% means that none of the beetle larvae have been killed.

[2] = test system: caterpillars of the army worm (Spodoptera frugiperda); assay: Spodoptera frugiperda test (SPODFR spray treatment); settings: Example I; 4 ppm active compound; sprayed maize leaf discs
Method: Spodoptera frugiperda Test (SPODFR Spray Treatment)
• Solvents: 78.0 parts by weight of acetone • 1.5 parts by weight of dimethylformamide • Emulsifier: 0.5 part by weight of alkylaryl polyglyycol ether
After the desired period of time, the effect in % is determined. 100% means that all caterpillars have been killed; 0% means that none of the caterpillars have been killed.

[3] = test system: unfed adult fleas (Ctenocephalides felis); assay: Ctenocephalides felis; oral (CTECFE); settings: Example J; 4 ppm active compound in citrated cattle blood, oral uptake
Method: Ctenocephalides felis; Oral (CTECFE)
as §1
To produce a suitable preparation of active compound, 1 part by weight of active compound is mixed with the stated amount of solvent. Part of the concentrate is diluted with citrated cattle blood, and the desired concentration is prepared.
20 unfed adult fleas (Ctenocephalides felis) are placed into a chamber whose top and bottom ends are closed with gauze. A metal cylinder whose bottom end is closed with parafilm is placed onto the chamber. The cylinder contains the blood/active compound preparation, which can be taken up by the fleas through the parafilm membrane. The blood is warmed to 37° C., but the flea chamber is at room temperature.
After the desired period of time, the kill in % is determined. 100% means that all fleas have been killed; 0% means that none of the fleas have been killed.
as §2

[4] = Example A, 0.8 ppm active compound
[5] = Example B, 0.16 ppm active compound

SMILES	Kill rate in % after 2 days (Lucilia cuprina larvae; [4]) [%]	further results
CCC(C)C1OC2(C=CC1C)CC1CC(CC=C(C)C(OC3CC(OC)C(OC(=O)C(=NOC)c4ccc(Cl)cc4Cl)C(C)O3)C(C)C=CC=C3COC4C(O)C(C)=CC(C(=O)O1)C34O)O2 (stereo not drawn) [Example 90]	–	Kill rate in % after 2 days (adult Musca domestica; 100 ppm active compound): 100%
CC[C@H](C)[C@H]1OC2(C=C[C@@H]1C)C[C@@H]1C[C@@H](C/C=C(\C)[C@@H](OC3CC(OC)C(OC(=O)CN(C)C(=O)OC(C)(C)C)C(C)O3)[C@@H](C)/C=C/C=C3\CO[C@@H]4[C@H](O)C(C)=CC(C(=O)O1)[C@]34O)O2 (stereo partly drawn) [Example 55]	90	Kill rate in % after 2 days (adult Musca domestica; 100 ppm active compound): 90%
CC[C@H](C)[C@H]1OC2(C=C[C@@H]1C)C[C@@H]1C[C@@H](C/C=C(\C)[C@@H](OC3CC(OC)C(OC(=O)C(C)n4cccn4)C(C)O3)[C@@H](C)/C=C/C=C3\CO[C@@H]4[C@H](O)C(C)=CC(C(=O)O1)[C@]34O)O2 (stereo partly drawn) [Example 48]	100	Kill rate in % after 2 days (adult Musca domestica; 100 ppm active compound): 100%; Kill rate in % after 7 days ([1]; Example G): 100%; Kill rate in % after 5 days [2]: 100%
CC[C@H](C)[C@H]1OC2(C=C[C@@H]1C)C[C@@H]1C[C@@H](C/C=C(\C)[C@@H](OC3CC(OC)C(OC(=O)Cc4ccc(Cl)cc4)C(C)O3)[C@@H](C)/C=C/C=C3\CO[C@@H]4[C@H](O)C(C)=CC(C(=O)O1)[C@]34O)O2 (stereo partly drawn) [Example 94]	–	Kill rate in % after 2 days (adult Musca domestica; 100 ppm active compound): 80%
CC[C@H](C)[C@H]1OC2(C=C[C@@H]1C)C[C@@H]1C[C@@H](C/C=C(\C)[C@@H](OC3CC(OC)C(OC(=O)CC(C)C)C(C)O3)[C@@H](C)/C=C/C=C3\CO[C@@H]4[C@H](O)C(C)=CC(C(=O)O1)[C@]34O)O2 (stereo partly drawn) [Example 4]	100	–
CC[C@H](C)[C@H]1OC2(C=C[C@@H]1C)C[C@@H]1C[C@@H](C/C=C(\C)[C@@H](OC3CC(OC)C(OC(=O)C4CCCC4)C(C)O3)[C@@H](C)/C=C/C=C3\CO[C@@H]4[C@H](O)C(C)=CC(C(=O)O1)[C@]34O)O2 (stereo partly drawn) [Example 16]	100	–
CC[C@H](C)[C@H]1OC2(C=C[C@@H]1C)C[C@@H]1C[C@@H](C/C=C(\C)[C@@H](OC3CC(OC)C(OC(=O)C(C)(C)n4cncn4)C(C)O3)[C@@H](C)/C=C/C=C3\CO[C@@H]4[C@H](O)C(C)=CC(C(=O)O1)[C@]34O)O2 (stereo partly drawn) [Example 20]	100	Kill rate in % after 7 days ([1]; Example D): 80%
CCC(C)C1OC2(C=CC1C)CC1CC(CC=C(C)C(OC3CC(OC)C(OC(=O)C4C(C=C(Cl)Cl)C4(C)C)C(C)O3)C(C)C=CC=C3COC4C(O)C(C)=CC(C(=O)O1)C34O)O2 (stereo not drawn) [Example 89]	–	Kill rate in % after 2 days (adult Musca domestica; 100 ppm active compound): 100%
CCC(C)C1OC2(C=CC1C)CC1CC(CC=C(C)C(OC3CC(OC)C(OC(=O)C(C)NC(C)=O)C(C)O3)C(C)C=CC=C3COC4C(O)C(C)=CC(C(=O)O1)C34O)O2 (mixture of isomers) [Example 54]	80	Kill rate in % after 7 days ([1]; Example G): 100%
CC[C@H](C)[C@H]1OC2(C=C[C@@H]1C)C[C@@H]1C[C@@H](C/C=C(\C)[C@@H](OC3CC(OC)C(OC(=O)C(C)C)C(C)O3)[C@@H](C)/C=C/C=C3\CO[C@@H]4[C@H](O)C(C)=CC(C(=O)O1)[C@]34O)O2 (stereo partly drawn) [Example 98, 4′-O-Isobutyryl-avermectin B1 monosaccharide]	95	–
CC[C@H](C)[C@H]1OC2(CC[C@@H]1C)C[C@@H]1C[C@@H](C/C=C(\C)[C@@H](OC3CC(OC)C(OC(=O)Cn4ccnn4)C(C)O3)[C@@H](C)/C=C/C=C3\CO[C@@H]4[C@H](O)C(C)=CC(C(=O)O1)[C@]34O)O2 (stereo partly drawn) [Example 18]	–	Kill rate in % after 7 days ([1]; Example G): 100%; Kill rate in % after 2 days (Lucilia cuprina larvae; [5]): 100%
CC[C@H](C)[C@H]1OC2(C=C[C@@H]1C)C[C@@H]1C[C@@H](C/C=C(\C)[C@@H](OC3CC(OC)C(OC(=O)Cc4c(C)nn(C)c4C)C(C)O3)[C@@H](C)/C=C/C=C3\CO[C@@H]4[C@H](O)C(C)=CC(C(=O)O1)[C@]34O)O2 (stereo partly drawn) [Example 26]	100	–
CC[C@H](C)[C@H]1OC2(C=C[C@@H]1C)C[C@@H]1C[C@@H](C/C=C(\C)[C@@H](OC3CC(OC)C(OC(=O)C4(C)CC4)C(C)O3)[C@@H](C)/C=C/C=C3\CO[C@@H]4[C@H](O)C(C)=CC(C(=O)O1)[C@]34O)O2 (stereo partly drawn) [Example 15]	100	–
CCC(C)C1OC2(C=CC1C)CC1CC(CC=C(C)C(OC3CC(OC)C(OC(=O)C(C)n4nc(OC)n(C)c4=O)C(C)O3)C(C)C=CC=C3COC4C(O)C(C)=CC(C(=O)O1)C34O)O2 (mixture of isomers) [Example 100]	100	–
CC[C@H](C)[C@H]1OC2(C=C[C@@H]1C)C[C@@H]1C[C@@H](C/C=C(\C)[C@@H](OC3CC(OC)C(OC(=O)C(C)(C)n4nc(C)cc4C)C(C)O3)[C@@H](C)/C=C/C=C3\CO[C@@H]4[C@H](O)C(C)=CC(C(=O)O1)[C@]34O)O2 (stereo partly drawn) [Example 19]	–	Kill rate in % after 2 days (Lucilia cuprina larvae; [5]): 100%
CC[C@H](C)[C@H]1OC2(C=C[C@@H]1C)C[C@@H]1C[C@@H](C/C=C(\C)[C@@H](OC3CC(OC)C(OC(=O)Cc4nonc4C)C(C)O3)[C@@H](C)/C=C/C=C3\CO[C@@H]4[C@H](O)C(C)=CC(C(=O)O1)[C@]34O)O2 (stereo partly drawn) [Example 25]	95	–
CCC(C)C(=O)OC1C(C)OC(O[C@@H]2/C(C)=C/C[C@@H]3C[C@@H](CC4(C=C[C@H](C)[C@@H]([C@@H](C)CC)O4)O3)OC(=O)C3C=C(C)[C@@H](O)[C@H]4OC/C(=C\C=C\[C@@H]2C)[C@@]34O)CC1OC (stereo partly drawn) [Example 9]	100	–
CCC(=O)OC1C(C)OC(O[C@@H]2/C(C)=C/C[C@@H]3C[C@@H](CC4(C=C[C@H](C)[C@@H]([C@@H](C)CC)O4)O3)OC(=O)C3C=C(C)[C@@H](O)[C@H]4OC/C(=C\C=C\[C@@H]2C)[C@@]34O)CC1OC (stereo partly drawn) [Example 6]	98	–
CC[C@H](C)[C@H]1OC2(C=C[C@@H]1C)C[C@@H]1C[C@@H](C/C=C(\C)[C@@H](OC3CC(OC)C(OC(=O)C(C)N4CCOCC4)C(C)O3)[C@@H](C)/C=C/C=C3\CO[C@@H]4[C@H](O)C(C)=CC(C(=O)O1)[C@]34O)O2 (stereo partly drawn) [Example 52, 4′-O-(2-morpholin-4-ylpropanoyl)-avermectin B1 monosaccharide]	100	Kill rate in % after 7 days ([1]; Example G): 100%; Kill rate in % after 5 days [2]: 100%; Kill rate in % after 2 days [3]: 50%
CC[C@H](C)[C@H]1OC2(C=C[C@@H]1C)C[C@@H]1C[C@@H](C/C=C(\C)[C@@H](OC3CC(OC)C(OC(=O)C4CC4)C(C)O3)[C@@H](C)/C=C/C=C3\CO[C@@H]4[C@H](O)C(C)=CC(C(=O)O1)[C@]34O)O2 (stereo partly drawn) [Example 1, 4′-O-(cyclopropylcarbonyl)-avermectin B1 monosaccharide]	100	Kill rate in % after 7 days ([1]; Example D): 90%
CC[C@H](C)[C@H]1OC2(C=C[C@@H]1C)C[C@@H]1C[C@@H](C/C=C(\C)[C@@H](OC3CC(OC)C(OC(=O)Cc4nc(-c5cccs5)sc4C)C(C)O3)[C@@H](C)/C=C/C=C3\CO[C@@H]4[C@H](O)C(C)=CC(C(=O)O1)[C@]34O)O2 (stereo partly drawn) [Example 91]	–	Kill rate in % after 2 days (adult Musca domestica; 100 ppm active compound): 90%
CC[C@H](C)[C@H]1OC2(C=C[C@@H]1C)C[C@@H]1C[C@@H](C/C=C(\C)[C@@H](OC3CC(OC)C(OC(=O)Cc4cccs4)C(C)O3)[C@@H](C)/C=C/C=C3\CO[C@@H]4[C@H](O)C(C)=CC(C(=O)O1)[C@]34O)O2 (stereo partly drawn) [Example 13]	–	Kill rate in % after 2 days (adult Musca domestica; 0.8 ppm active compound): 50%
CC[C@H](C)[C@H]1OC2(C=C[C@@H]1C)C[C@@H]1C[C@@H](C/C=C(\C)[C@@H](OC3CC(OC)C(OC(=O)C(C)(C)C)C(C)O3)[C@@H](C)/C=C/C=C3\CO[C@@H]4[C@H](O)C(C)=CC(C(=O)O1)[C@]34O)O2 (stereo partly drawn) [Example 5]	100	–
CC[C@H](C)[C@H]1OC2(C=C[C@@H]1C)C[C@@H]1C[C@@H](C/C=C(\C)[C@@H](OC3CC(OC)C(OC(=O)Cc4ccsc4)C(C)O3)[C@@H](C)/C=C/C=C3\CO[C@@H]4[C@H](O)C(C)=CC(C(=O)O1)[C@]34O)O2 (stereo partly drawn) [Example 12]	100	–
CC[C@H](C)[C@H]1OC2(C=C[C@@H]1C)C[C@@H]1C[C@@H](C/C=C(\C)[C@@H](OC3CC(OC)C(OC(=O)Cc4sccc4C)C(C)O3)[C@@H](C)/C=C/C=C3\CO[C@@H]4[C@H](O)C(C)=CC(C(=O)O1)[C@]34O)O2 (stereo partly drawn) [Example 27]	100	–

From patent US8183351B2, “Avermectin derivatives” (Bayer Cropscience AG, priority 2006, dated 2012)
